Experimental data reported in patent US11542240B2, “STK19 inhibitors for treatment of cancer” (TRUSTEES OF BOSTON UNIVERSITY, priority 2018, dated 2023).

What was measured:
Test in all cases: biochemical
Type in all cases: binding
[1] = target: panel of 468 diverse kinases (Homo sapiens, UniProt Q8TD19); details: NEK9; 1000 nM; read-out: Percent Control
[2] = target: panel of 468 diverse kinases (Homo sapiens, UniProt P42685); details: FRK; 1000 nM; read-out: Percent Control
[3] = target: panel of 468 diverse kinases (Homo sapiens, UniProt Q5VT25); details: MRCKA; 1000 nM; read-out: Percent Control
[4] = target: panel of 468 diverse kinases (Homo sapiens, UniProt P49840); details: GSK3A; 1000 nM; read-out: Percent Control
Chain of panel of 468 diverse kinases (Homo sapiens, UniProt P49840) (P49840 2-483 limits assumed): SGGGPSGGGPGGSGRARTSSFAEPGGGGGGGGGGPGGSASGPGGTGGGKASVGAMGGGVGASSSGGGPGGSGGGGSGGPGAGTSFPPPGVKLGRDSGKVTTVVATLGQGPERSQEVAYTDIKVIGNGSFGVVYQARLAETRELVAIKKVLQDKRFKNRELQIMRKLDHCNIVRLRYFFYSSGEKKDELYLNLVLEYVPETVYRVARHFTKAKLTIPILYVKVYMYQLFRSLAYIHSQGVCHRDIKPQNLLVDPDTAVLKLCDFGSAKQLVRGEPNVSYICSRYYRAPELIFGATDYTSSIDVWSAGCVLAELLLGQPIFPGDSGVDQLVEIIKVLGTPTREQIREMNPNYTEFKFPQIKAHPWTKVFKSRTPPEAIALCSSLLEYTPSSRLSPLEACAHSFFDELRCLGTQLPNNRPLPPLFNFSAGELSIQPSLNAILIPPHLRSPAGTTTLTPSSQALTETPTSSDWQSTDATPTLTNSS

[5] = target: panel of 468 diverse kinases (Homo sapiens, UniProt P07949); details: RET; 1000 nM; read-out: Percent Control
Chain of panel of 468 diverse kinases (Homo sapiens, UniProt P07949) (P07949 29-1114 limits assumed): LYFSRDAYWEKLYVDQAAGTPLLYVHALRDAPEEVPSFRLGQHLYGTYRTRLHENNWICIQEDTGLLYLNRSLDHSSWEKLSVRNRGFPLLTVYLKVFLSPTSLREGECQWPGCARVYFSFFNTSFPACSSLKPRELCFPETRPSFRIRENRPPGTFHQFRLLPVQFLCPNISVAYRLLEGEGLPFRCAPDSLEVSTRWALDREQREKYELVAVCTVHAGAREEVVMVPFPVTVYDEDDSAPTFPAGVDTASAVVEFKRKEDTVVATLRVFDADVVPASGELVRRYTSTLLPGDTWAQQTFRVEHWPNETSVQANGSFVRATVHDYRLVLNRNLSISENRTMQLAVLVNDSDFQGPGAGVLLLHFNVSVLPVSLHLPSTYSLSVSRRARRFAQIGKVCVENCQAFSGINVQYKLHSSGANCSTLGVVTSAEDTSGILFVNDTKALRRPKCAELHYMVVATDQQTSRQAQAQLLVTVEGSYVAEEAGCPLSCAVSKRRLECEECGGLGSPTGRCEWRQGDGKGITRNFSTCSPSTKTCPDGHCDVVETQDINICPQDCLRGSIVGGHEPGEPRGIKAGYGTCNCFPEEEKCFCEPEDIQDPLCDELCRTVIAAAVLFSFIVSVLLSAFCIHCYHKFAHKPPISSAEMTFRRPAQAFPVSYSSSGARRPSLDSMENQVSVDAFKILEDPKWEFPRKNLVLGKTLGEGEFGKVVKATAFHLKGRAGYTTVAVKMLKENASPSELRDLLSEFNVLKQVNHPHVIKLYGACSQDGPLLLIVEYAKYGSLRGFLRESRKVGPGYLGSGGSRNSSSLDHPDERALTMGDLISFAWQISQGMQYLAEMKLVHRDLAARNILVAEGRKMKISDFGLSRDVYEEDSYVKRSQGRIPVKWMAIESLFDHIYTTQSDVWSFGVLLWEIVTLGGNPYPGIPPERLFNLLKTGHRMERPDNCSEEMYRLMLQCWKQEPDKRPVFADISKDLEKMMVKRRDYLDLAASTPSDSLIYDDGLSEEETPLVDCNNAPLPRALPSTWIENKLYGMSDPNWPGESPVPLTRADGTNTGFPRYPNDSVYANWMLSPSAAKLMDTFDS

[6] = target: panel of 468 diverse kinases (Homo sapiens, UniProt P35626); details: GRK3; 1000 nM; read-out: Percent Control
[7] = target: panel of 468 diverse kinases (Homo sapiens, UniProt Q13131); details: AMPK-alpha1; 1000 nM; read-out: Percent Control
[8] = target: panel of 468 diverse kinases (Homo sapiens, UniProt P20794); details: MAK; 1000 nM; read-out: Percent Control
[9] = target: panel of 468 diverse kinases (Homo sapiens, UniProt Q96PN8); details: TS SK3; 1000 nM; read-out: Percent Control
[10] = target: panel of 468 diverse kinases (Homo sapiens, UniProt Q2M2I8); details: AAK1; 1000 nM; read-out: Percent Control
[11] = target: panel of 468 diverse kinases (Homo sapiens, UniProt Q9Y616); details: IRAK3; 1000 nM; read-out: Percent Control
[12] = target: panel of 468 diverse kinases (Homo sapiens, UniProt P00519, M351T); details: ABL1(M351T)-phosphorylated; 1000 nM; read-out: Percent Control
[13] = target: panel of 468 diverse kinases (Homo sapiens, UniProt Q86Y07); details: VRK2; 1000 nM; read-out: Percent Control
[14] = target: panel of 468 diverse kinases (Homo sapiens, UniProt O95819); details: MAP4K4; 1000 nM; read-out: Percent Control
[15] = target: panel of 468 diverse kinases (Homo sapiens, UniProt Q5S007); details: LRRK2; 1000 nM; read-out: Percent Control
[16] = target: panel of 468 diverse kinases (Homo sapiens, UniProt Q96PY6); details: NEK1; 1000 nM; read-out: Percent Control
[17] = target: panel of 468 diverse kinases (Homo sapiens, UniProt O94806); details: PRKD3; 1000 nM; read-out: Percent Control
[18] = target: panel of 468 diverse kinases (Homo sapiens, UniProt Q9P1W9); details: PIM2; 1000 nM; read-out: Percent Control
[19] = target: panel of 468 diverse kinases (Homo sapiens, UniProt P10721, T670I/V559D); details: KIT(V559D,T670I); 1000 nM; read-out: Percent Control
[20] = target: panel of 468 diverse kinases (Homo sapiens, UniProt P10721, D816V); details: KIT(D816V); 1000 nM; read-out: Percent Control
[21] = target: panel of 468 diverse kinases (Homo sapiens, UniProt P00519, E255K); details: ABL1(E255K)-phosphorylated; 1000 nM; read-out: Percent Control
[22] = target: panel of 468 diverse kinases (Homo sapiens, UniProt P29376); details: LTK; 1000 nM; read-out: Percent Control
Chain of panel of 468 diverse kinases (Homo sapiens, UniProt P29376) (P29376 17-864 limits assumed): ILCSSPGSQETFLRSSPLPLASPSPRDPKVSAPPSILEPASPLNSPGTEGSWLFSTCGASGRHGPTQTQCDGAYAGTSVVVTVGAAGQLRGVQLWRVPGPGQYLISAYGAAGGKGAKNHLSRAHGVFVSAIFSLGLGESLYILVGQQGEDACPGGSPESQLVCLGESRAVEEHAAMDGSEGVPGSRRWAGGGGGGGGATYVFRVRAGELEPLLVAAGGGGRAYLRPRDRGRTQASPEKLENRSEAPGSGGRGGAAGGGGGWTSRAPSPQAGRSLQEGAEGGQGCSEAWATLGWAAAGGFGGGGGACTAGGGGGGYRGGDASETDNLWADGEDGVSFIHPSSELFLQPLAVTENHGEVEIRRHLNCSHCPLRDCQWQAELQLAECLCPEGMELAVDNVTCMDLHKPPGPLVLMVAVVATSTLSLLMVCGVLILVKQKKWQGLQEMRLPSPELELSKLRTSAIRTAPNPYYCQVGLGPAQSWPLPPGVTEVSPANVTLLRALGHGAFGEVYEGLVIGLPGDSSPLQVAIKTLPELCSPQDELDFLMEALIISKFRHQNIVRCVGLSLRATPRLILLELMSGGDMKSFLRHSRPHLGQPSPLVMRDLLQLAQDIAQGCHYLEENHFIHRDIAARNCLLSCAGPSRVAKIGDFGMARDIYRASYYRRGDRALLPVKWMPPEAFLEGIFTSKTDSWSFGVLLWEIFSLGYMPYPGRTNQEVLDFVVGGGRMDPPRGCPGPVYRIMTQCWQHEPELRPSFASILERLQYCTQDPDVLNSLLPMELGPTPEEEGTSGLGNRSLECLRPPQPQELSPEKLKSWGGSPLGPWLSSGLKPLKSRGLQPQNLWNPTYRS

[23] = target: panel of 468 diverse kinases (Homo sapiens, UniProt Q9Y2I7); details: PIKFYVE; 1000 nM; read-out: Percent Control
[24] = target: panel of 468 diverse kinases (Homo sapiens, UniProt P42336, H1047L); details: PIK3CA(H1047L); 1000 nM; read-out: Percent Control
[25] = target: panel of 468 diverse kinases (Homo sapiens, UniProt P08631); details: HCK; 1000 nM; read-out: Percent Control
Chain of panel of 468 diverse kinases (Homo sapiens, UniProt P08631) (P08631 2-526 limits assumed): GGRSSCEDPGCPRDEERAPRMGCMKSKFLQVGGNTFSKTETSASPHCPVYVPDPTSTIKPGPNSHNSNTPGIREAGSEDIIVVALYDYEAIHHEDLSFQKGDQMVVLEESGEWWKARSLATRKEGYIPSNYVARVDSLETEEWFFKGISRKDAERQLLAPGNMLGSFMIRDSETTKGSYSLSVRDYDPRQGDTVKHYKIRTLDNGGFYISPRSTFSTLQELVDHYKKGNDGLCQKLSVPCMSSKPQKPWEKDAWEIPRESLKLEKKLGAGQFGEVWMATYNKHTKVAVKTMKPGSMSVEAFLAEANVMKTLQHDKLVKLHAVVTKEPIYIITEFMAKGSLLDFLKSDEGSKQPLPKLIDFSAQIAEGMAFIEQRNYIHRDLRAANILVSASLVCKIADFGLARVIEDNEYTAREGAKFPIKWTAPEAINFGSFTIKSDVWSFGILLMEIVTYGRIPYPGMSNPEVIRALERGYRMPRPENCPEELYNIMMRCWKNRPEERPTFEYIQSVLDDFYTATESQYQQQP

[26] = target: panel of 468 diverse kinases (Homo sapiens, UniProt Q86YV6); details: MYLK4; 1000 nM; read-out: Percent Control
[27] = target: panel of 468 diverse kinases (Homo sapiens, UniProt P21127); details: CDC2L1; 1000 nM; read-out: Percent Control
[28] = target: panel of 468 diverse kinases (Homo sapiens, UniProt P36888, D835H); details: FLT3(D835H); 1000 nM; read-out: Percent Control
[29] = target: panel of 468 diverse kinases (Homo sapiens, UniProt P00533, T790M); details: EGFR(T790M); 1000 nM; read-out: Percent Control
Chain of panel of 468 diverse kinases (Homo sapiens, UniProt P00533, T790M) (P00533 25-1210 T790M limits assumed): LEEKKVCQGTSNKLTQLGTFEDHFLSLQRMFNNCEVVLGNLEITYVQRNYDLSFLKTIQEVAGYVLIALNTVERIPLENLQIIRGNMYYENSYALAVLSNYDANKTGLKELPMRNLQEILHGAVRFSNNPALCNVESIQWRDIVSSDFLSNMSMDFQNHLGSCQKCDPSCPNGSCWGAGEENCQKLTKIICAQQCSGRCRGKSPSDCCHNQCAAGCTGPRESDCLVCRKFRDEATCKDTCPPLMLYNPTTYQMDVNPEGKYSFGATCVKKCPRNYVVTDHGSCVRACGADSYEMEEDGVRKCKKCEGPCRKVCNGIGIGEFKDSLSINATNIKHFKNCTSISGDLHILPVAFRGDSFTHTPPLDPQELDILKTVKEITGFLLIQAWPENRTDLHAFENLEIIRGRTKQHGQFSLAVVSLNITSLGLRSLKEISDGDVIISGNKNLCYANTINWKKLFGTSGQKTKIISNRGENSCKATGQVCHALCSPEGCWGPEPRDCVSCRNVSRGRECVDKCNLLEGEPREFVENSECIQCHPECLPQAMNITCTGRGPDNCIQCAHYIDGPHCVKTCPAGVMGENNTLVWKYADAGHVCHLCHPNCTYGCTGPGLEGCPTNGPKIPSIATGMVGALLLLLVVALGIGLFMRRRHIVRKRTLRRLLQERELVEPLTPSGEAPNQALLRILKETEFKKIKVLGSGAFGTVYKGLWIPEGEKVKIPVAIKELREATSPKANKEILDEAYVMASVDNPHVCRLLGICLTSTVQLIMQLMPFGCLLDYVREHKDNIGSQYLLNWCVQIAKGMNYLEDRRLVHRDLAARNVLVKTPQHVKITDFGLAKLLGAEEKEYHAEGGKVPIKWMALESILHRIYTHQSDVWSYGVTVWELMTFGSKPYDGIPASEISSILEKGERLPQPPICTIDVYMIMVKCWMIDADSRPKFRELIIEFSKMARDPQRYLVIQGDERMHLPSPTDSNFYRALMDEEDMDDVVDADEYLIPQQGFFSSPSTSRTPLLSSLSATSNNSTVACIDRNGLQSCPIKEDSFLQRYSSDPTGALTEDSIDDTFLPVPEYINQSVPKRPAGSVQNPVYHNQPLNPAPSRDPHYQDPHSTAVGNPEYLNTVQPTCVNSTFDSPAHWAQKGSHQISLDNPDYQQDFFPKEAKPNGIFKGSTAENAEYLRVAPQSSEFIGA

[30] = target: panel of 468 diverse kinases (Homo sapiens, UniProt Q9H4B4); details: PLK3; 1000 nM; read-out: Percent Control

Chain of panel of 468 diverse kinases (Homo sapiens, UniProt Q8TD19) (Q8TD19 2-979 limits assumed): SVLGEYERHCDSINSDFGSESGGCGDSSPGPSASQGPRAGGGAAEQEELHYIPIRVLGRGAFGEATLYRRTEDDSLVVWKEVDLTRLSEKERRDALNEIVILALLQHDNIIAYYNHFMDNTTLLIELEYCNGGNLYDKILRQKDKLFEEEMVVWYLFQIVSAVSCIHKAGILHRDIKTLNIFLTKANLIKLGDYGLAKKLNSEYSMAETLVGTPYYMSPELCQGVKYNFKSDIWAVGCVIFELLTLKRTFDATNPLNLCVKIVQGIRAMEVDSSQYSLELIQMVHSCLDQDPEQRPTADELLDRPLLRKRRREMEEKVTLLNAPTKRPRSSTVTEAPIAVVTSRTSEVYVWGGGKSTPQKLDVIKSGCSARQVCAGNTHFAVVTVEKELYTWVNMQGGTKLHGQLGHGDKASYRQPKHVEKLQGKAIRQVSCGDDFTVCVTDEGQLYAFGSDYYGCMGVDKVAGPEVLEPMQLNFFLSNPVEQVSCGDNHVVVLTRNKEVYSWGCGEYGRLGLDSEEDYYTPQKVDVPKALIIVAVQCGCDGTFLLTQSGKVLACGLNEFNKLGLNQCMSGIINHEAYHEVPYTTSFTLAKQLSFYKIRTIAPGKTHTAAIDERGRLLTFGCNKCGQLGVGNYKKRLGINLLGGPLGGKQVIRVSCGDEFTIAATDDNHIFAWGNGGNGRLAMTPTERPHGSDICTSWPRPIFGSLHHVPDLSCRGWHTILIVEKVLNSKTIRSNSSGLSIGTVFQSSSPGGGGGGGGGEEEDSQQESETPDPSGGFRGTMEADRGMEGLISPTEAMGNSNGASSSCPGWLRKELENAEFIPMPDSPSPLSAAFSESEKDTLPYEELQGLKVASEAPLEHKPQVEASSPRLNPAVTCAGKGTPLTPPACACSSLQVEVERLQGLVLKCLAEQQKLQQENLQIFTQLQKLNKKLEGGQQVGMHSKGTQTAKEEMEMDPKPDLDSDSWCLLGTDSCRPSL

COc1cc2nc(NC3CC3)nc(NC3CCN(C(C)C)CC3)c2cc1OC [Formula IV]
remaining activity at 1 µM [1]: 83%
remaining activity at 1 µM [2]: 100%
remaining activity at 1 µM [3]: 100%
remaining activity at 1 µM [4]: 95%
remaining activity at 1 µM [5]: 100%
remaining activity at 1 µM [6]: 53%
remaining activity at 1 µM [7]: 92%
remaining activity at 1 µM [8]: 88%
remaining activity at 1 µM [9]: 96%
remaining activity at 1 µM [10]: 91%
remaining activity at 1 µM [11]: 99%
remaining activity at 1 µM [12]: 59%
remaining activity at 1 µM [13]: 56%
remaining activity at 1 µM [14]: 100%
remaining activity at 1 µM [15]: 71%
remaining activity at 1 µM [16]: 100%
remaining activity at 1 µM [17]: 91%
remaining activity at 1 µM [18]: 91%
remaining activity at 1 µM [19]: 86%
remaining activity at 1 µM [20]: 100%
remaining activity at 1 µM [21]: 89%
remaining activity at 1 µM [22]: 82%
remaining activity at 1 µM [23]: 96%
remaining activity at 1 µM [24]: 90%
remaining activity at 1 µM [25]: 95%
remaining activity at 1 µM [26]: 93%
remaining activity at 1 µM [27]: 100%
remaining activity at 1 µM [28]: 81%
remaining activity at 1 µM [29]: 44%
remaining activity at 1 µM [30]: 68%
